Data as given in US20260232767A1, “INTERLEUKIN-23 RECEPTOR ANTAGONIST PEPTIDES FOR USE IN THE TREATMENT OF PSORIASIS” (Janssen Pharmaceutica NV, priority 2023, published 2026).

Key:
IL-17F = assay: Serum IL-17F immunoassay; type: in vivo, human; settings: all treatment groups relative to placebo
Protocol: (§1) To evaluate psoriasis relevant systemic biomarkers (Beta-defensin 2 (BD-2), IL-17A, IL-17F, and IL-22), protein concentrations were measured in serum using validated immunoassays. The IL-17A (Catalog #03-0159-00) and IL-17F (Catalog #03-0164-00) assays used are commercially available SMC™-based high sensitivity immunoassays produced by the EMD Millipore Corporation. The manufacturer's protocols were followed and analyzed on the Erenna® instrument platform except for the use of 11 μL Elution Buffer B. While the IL-22 assay is also based on the SMC™ platform and run on the Erenna instrument, the assay was developed internally as a coated plate-based assay. The development and optimization of the BD-2 assay was done on the Meso Scale Discovery on the electrochemiluminescence-based platform, a division of Meso Scale Diagnostics LLC (MSD). For all assays, concentration adjustments were made to values measuring below empirically defined LLOQ or empirically defined ULOQ values. Assay QC verified performance of generated standard curves (average concentration recovery & CV of technical replicates) and control samples (inter-assay plate agreement (CV)).
(§2) Serum levels of psoriasis disease biomarkers BD-2, IL-22, IL-17A, and IL-17F relative to baseline were analyzed in patients who received placebo or the compound of Formula (I) and compared to clinical response. […]

IL-22 = assay: Serum IL-22 immunoassay; type: in vivo, human; settings: all treatment groups relative to placebo
Protocol: as §1, §2

How did the IL-17F serum levels (IL-17F) turn out when CC(=O)NCCCC[C@@H]1NC(=O)[C@H](Cc2c[nH]c3c(C)cccc23)NC(=O)[C@H]([C@@H](C)O)NC(=O)[C@H](CC(N)=O)NC(=O)[C@@H](NC(C)=O)C(C)(C)SSC(C)(C)[C@@H](C(=O)N[C@@H](Cc2ccc(OCCN)cc2)C(=O)N[C@@H](Cc2ccc3ccccc3c2)C(=O)NC2(C(=O)N[C@@H](CCC(=O)O)C(=O)N[C@@H](CC(N)=O)C(=O)N[C@@H](Cc3cccnc3)C(=O)N(C)CC(N)=O)CCOCC2)NC1=O [IL-23 receptor antagonist peptide, Ac-[Pen]*-N-T-[W(7-Me)]-[Lys(Ac)]-[Pen]*-Phe[4-(2-aminoethoxy)]-[2-Nal]-[THP]-E-N-[3-Pal]-Sarc-NH2 (*[Pen]-[Pen]* formdisulfidebond)] was run?
Its IL-17F serum levels is “Statistically significant reductions”.

And the IL-22 serum levels (IL-22)?
Its IL-22 serum levels is “statistically significant reduction”.
